Source: article PMC12967844 (Engineering Microbiology, 2025)

Target: PtlI (pentalenene oxygenase) (Streptomyces avermitilis, UniProt Q82IY3)
Settings: E. coli co-expressing penA; substrate made in the cell; endogenous E. coli redox proteins

Sequence of PtlI (pentalenene oxygenase) (Q82IY3 whole entry): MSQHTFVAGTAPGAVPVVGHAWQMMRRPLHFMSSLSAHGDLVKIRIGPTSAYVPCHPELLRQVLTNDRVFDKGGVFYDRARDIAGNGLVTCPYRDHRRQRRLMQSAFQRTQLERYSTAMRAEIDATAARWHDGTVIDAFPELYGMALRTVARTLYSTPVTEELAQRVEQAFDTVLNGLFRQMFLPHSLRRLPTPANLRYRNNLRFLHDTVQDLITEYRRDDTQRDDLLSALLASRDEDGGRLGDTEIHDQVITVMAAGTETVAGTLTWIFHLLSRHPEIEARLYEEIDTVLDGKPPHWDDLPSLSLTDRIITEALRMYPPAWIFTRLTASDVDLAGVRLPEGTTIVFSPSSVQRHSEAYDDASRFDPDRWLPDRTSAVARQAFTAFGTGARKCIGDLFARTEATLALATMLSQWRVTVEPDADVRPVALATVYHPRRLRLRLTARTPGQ

CC1=C[C@@H]2CC(C)(C)C[C@@]23[C@H](C)CC[C@@H]13 [compound 3, pentalenene]
GC-MS of culture extracts, heterologous expression in E. coli: PtlI can catalyze a three-step oxidation in the cell
